Consider 31 compounds from patent publication US10562902B2, “IRAK4 inhibitor and use thereof” (BEIJING HANMI PHARMACEUTICAL CO., LTD., priority 2015, dated 2020).

The test system of experiment [1] is TMD-8 cells. Kind of experiment: TMD-8 cell growth inhibition assay. In kind it is cell-based. As to conditions: Homo sapiens, TMD8, 96 hours, CCK-8. How it is done: The compound of Example 64 and the compound of Example 74 of the invention were tested in TMD-8 cell growth inhibition assay. TMD-8 cells (available from Korea Hanmi Research Center) were cultured in RMPI-1640 medium (purchased from Gibco, Cat. No.: 22440) containing 10% fetal bovine serum (purchased from Gibco, Cat. No.: 10099-141). The TMD-8 cells in logarithmic growth phase were seeded in a 96-well plate at 20,000 cells/well/100 μL, and RMPI-1640 medium (100 μL) was added into blank control wells. The test samples were diluted with RMPI-1640 medium to 2 folds of the final concentration (10-fold dilutions starting from 10 μM, setting 6 drug concentrations, and testing in replicate wells at each concentration). The diluted test samples were added to test wells seeded with cells at 100 μL/well, and RMPI-1640 medium (100 μL) was separately added to the positive control and the blank control wells. The 96-well plate was placed in the incubator and reacted at 37° C., 5% CO2 for 96 hours. After the reaction was completed, the 96-well plate was taken from the incubator and to each well was added CCK-8 (100 μL) (purchased from DOJINDO, Cat. No.: CK04-11). Then the 96-well plate was put back to the incubator and incubated for another 2 hours.

Experiment [2] deals with IRAK4 kinase (Homo sapiens (Human), UniProt Q9NWZ3). Kind of experiment: IRAK4 kinase activity inhibition assay. In kind it is biochemical. The note with it: ADP-Glo kinase assay, 10 μM ATP, MBP substrate. An outline of the steps: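 IRAK4 ([…]) in 40 mM Tris-HCl pH 7.5, 20 mM MgCl2, 0.1 mg/mL BSA and 1 mM DTT was preincubated 10 min at 25 °C with six 10-fold dilutions of compound from 10 μM. ATP (10 μM) and MBP substrate (0.1 μg/μL) were then added and reacted 60 min at 25 °C. ADP formed was read by ADP-Glo luminescence to give IC50.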

The subject of experiment [3] is LPS-induced TNF-α secretion in THP-1 cells. Kind of experiment: LPS-induced TNF-α secretion assay in THP-1 cells. As to conditions: Homo sapiens, 24 hours, TNF-α ELISA. In kind it is cell-based. How it is done: The compound of Example 133 and the compound of Example 134 of the invention were tested in LPS-induced TNF-α secretion assay in THP-1 cells. Human THP-1 cells (purchased from ATCC, Cat. No.: TIB-202) were cultured in RPMI-1640 medium (purchased from Gibco, Cat. No.: 22440) containing 10% fetal bovine serum (purchased from Gibco, Cat. No.: 10099-141) and 0.05 mM of 2-mercaptoethanol (purchased from Gibco, Cat. No.: 21985). The THP-1 cells in logarithmic growth phase were seeded in a 96-well plate at 2×10^5 cells/well/100 μL. The test samples were diluted with RMPI-1640 medium to 4 folds of the final concentration (5-fold dilutions starting from 10 μM, setting 6 drug concentrations, and testing in replicate wells at each concentration). The diluted test samples were added to the test wells seeded with cells at 50 μL/well, and RMPI-1640 medium (50 μL) was separately added to positive control and negative control wells. The 96-well plate was placed in the incubator at 37° C., 5% CO2 and pre-incubated for 2 hours. […] After incubation in the incubator at 37° C., 5% CO2 for 24 hours, the cell culture supernatant was taken and determined for the content of TNF-α in the supernatant using a human TNF-α ELISA kit (purchased from DKW, Cat. No.: 12-1720-096).
Background: An ELISA detects its analyte on a solid surface through an enzyme-linked reagent.

Molecules are shown by their SMILES.

Chain of IRAK4 kinase (Q9NWZ3 whole entry): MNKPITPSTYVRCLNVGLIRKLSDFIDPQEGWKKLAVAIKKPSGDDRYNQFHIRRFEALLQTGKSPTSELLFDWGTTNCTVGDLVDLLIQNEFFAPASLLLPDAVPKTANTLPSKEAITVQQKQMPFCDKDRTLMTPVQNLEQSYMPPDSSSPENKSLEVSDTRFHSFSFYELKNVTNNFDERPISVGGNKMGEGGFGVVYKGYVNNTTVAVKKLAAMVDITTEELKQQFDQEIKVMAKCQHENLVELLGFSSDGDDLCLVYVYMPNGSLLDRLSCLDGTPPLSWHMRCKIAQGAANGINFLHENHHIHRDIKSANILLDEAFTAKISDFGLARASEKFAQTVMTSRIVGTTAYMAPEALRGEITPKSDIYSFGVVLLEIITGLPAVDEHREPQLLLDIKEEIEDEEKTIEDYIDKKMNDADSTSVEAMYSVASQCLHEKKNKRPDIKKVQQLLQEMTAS

As usually defined, the IC50 is the concentration at which inhibition is half-maximal. Low values mean inhibition by little substance, high ones a need for much substance. Consider `Cc1cc(Nc2nc(O[C@H]3CCOC3)c3c(ccn3-c3cnn(C)c3)n2)sn1` [Example 64], for which the values for the IC50 in experiment [1] and in experiment [2] were 184 nM and ≤ 100 nM, respectively. For `Cc1cc(Nc2nc(OC3CCOCC3)c3c(ccn3-c3cnn(C)c3)n2)sn1` [Example 74], in that order: 479 nM and ≤ 100 nM. As to `CNC(=O)c1csc(Nc2nc(O[C@H]3CCOC3)c3c(ccn3-c3cnn(C)c3)n2)c1` [Example 133], the half-inhibitory concentration (IC50) was 161 nM in experiment [3] and ≤ 100 nM in experiment [2]. On the same counts, the results for `CCNC(=O)c1csc(Nc2nc(O[C@H]3CCOC3)c3c(ccn3-c3cnn(C)c3)n2)c1` [Example 134] are 311 nM and ≤ 100 nM. For `CN(C)C(=O)c1csc(Nc2nc(O[C@H]3CCOC3)c3c(ccn3-c3cnn(C)c3)n2)c1` [Example 149], in experiment [2], the IC50 was ≤ 100 nM.

Take `Cn1cc(-n2ccc3nc(Nc4cc(C(=O)N5CCCCC5)cs4)nc(O[C@H]4CCOC4)c32)cn1` [Example 150]: the half-maximal inhibitory concentration (IC50) in experiment [2] was ≤ 100 nM. For `CN1CCN(C(=O)c2csc(Nc3nc(O[C@H]4CCOC4)c4c(ccn4-c4cnn(C)c4)n3)c2)CC1` [Example 151], in experiment [2], the IC50 was ≤ 100 nM. Same read-out and setting: for `Cn1cc(-n2ccc3nc(Nc4cc(C(=O)N5CCOCC5)cs4)nc(O[C@H]4CCOC4)c32)cn1` [Example 152] the value was ≤ 100 nM; for `Cn1cc(-n2ccc3nc(Nc4cc(C(=O)N5CCSCC5)cs4)nc(O[C@H]4CCOC4)c32)cn1` [Example 153], 100 to 1000 nM.

Take `Cn1cc(-n2ccc3nc(Nc4cc(C(=O)N5CCS(=O)(=O)CC5)cs4)nc(O[C@H]4CCOC4)c32)cn1` [Example 154]: in experiment [2], the concentration for half-maximal inhibition (IC50) was ≤ 100 nM. `CNC(=O)c1cc(Nc2nc(OCCOC)c3c(ccn3-c3cnn(C)c3)n2)cs1` [Example 155]: the IC50 in experiment [2] is ≤ 100 nM. Same read-out and setting: for `CCNC(=O)c1cc(Nc2nc(OCCOC)c3c(ccn3-c3cnn(C)c3)n2)cs1` [Example 156] the value was ≤ 100 nM; for `CNC(=O)c1cc(Nc2nc(O[C@@H]3CCOC3)c3c(ccn3-c3cnn(C)c3)n2)cs1` [Example 157], ≤ 100 nM; for `CCNC(=O)c1cc(Nc2nc(O[C@@H]3CCOC3)c3c(ccn3-c3cnn(C)c3)n2)cs1` [Example 158], ≤ 100 nM.

Regarding `CNC(=O)c1cc(Nc2nc(O[C@H]3CCOC3)c3c(ccn3-c3cnn(C)c3)n2)cs1` [Example 159], the half-inhibitory concentration (IC50) in experiment [2] is ≤ 100 nM. Same read-out and setting: next, `CCNC(=O)c1cc(Nc2nc(O[C@H]3CCOC3)c3c(ccn3-c3cnn(C)c3)n2)cs1` [Example 160]: ≤ 100 nM; `Cn1cc(-n2ccc3nc(Nc4csc(C(=O)NCCF)c4)nc(O[C@H]4CCOC4)c32)cn1` [Example 161]: ≤ 100 nM. `CN1CCC(NC(=O)c2cc(Nc3nc(O[C@H]4CCOC4)c4c(ccn4-c4cnn(C)c4)n3)cs2)CC1` [Example 162]: the IC50 in experiment [2] was ≤ 100 nM. The same measure, in the same setting: next, `CN(C)C(=O)c1cc(Nc2nc(O[C@H]3CCOC3)c3c(ccn3-c3cnn(C)c3)n2)cs1` [Example 163]: ≤ 100 nM; `CNC(=O)c1ccc(Nc2nc(O[C@H]3CCOC3)c3c(ccn3-c3cnn(C)c3)n2)s1` [Example 164]: 100 to 1000 nM; `CNC(=O)c1csc(Nc2nc(O[C@H]3CCOC3)c3c(ccn3-c3cnn(C)c3)n2)n1` [Example 165]: 1000 to 10000 nM. On the same count and under the same terms, for `CNC(=O)c1cc(Nc2nc(O[C@H]3CCOC3)c3c(ccn3-c3cnn(C)c3)n2)sn1` [Example 166] the value was ≤ 100 nM; for `CNC(=O)c1csc(Nc2nc(OC3CCOCC3)c3c(ccn3-c3cnn(C)c3)n2)c1` [Example 167], ≤ 100 nM. Same read-out and setting: next, `CCNC(=O)c1csc(Nc2nc(OC3CCOCC3)c3c(ccn3-c3cnn(C)c3)n2)c1` [Example 168]: ≤ 100 nM; `Cn1cc(-n2ccc3nc(Nc4cc(C(=O)NCCF)cs4)nc(OC4CCOCC4)c32)cn1` [Example 169]: ≤ 100 nM; `Cn1cc(-n2ccc3nc(Nc4cc(C(=O)NCC(F)F)cs4)nc(OC4CCOCC4)c32)cn1` [Example 170]: ≤ 100 nM. For the compound `CN(C)C(=O)c1csc(Nc2nc(OC3CCOCC3)c3c(ccn3-c3cnn(C)c3)n2)c1` [Example 171], the IC50 in experiment [2] was ≤ 100 nM.

Regarding `CNC(=O)c1cc(Nc2nc(OC3CCOCC3)c3c(ccn3-c3cnn(C)c3)n2)cs1` [Example 172], in experiment [2], the half-inhibitory concentration (IC50) is ≤ 100 nM. Same read-out and setting: next, `CCNC(=O)c1cc(Nc2nc(OC3CCOCC3)c3c(ccn3-c3cnn(C)c3)n2)cs1` [Example 173]: ≤ 100 nM; `CN(C)C(=O)c1cc(Nc2nc(OC3CCOCC3)c3c(ccn3-c3cnn(C)c3)n2)cs1` [Example 174]: 100 to 1000 nM; `Cn1cc(-n2ccc3nc(Nc4cc5n(c4)CCNC5=O)nc(OC4CCOCC4)c32)cn1` [Example 175]: 100 to 1000 nM.
